We go through one molecule from ChEMBL document CHEMBL5543122, “Discovery of HC-7366: An Orally Bioavailable and Efficacious GCN2 Kinase Activator” (J Med Chem, 2024).

The structures appear in SMILES notation.

A short description of data set [1]: Oral bioavailability in BALB/c mouse at 3 mg/kg measured upto 24 hrs. The note with it: in vivo. The data set is classed as ADME, organism-based.
Data set [2] can be described thus: Half-life in BALB/c mouse at 3 mg/kg, po and 1 mg/kg, iv measured upto 24 hrs. Type of data set: ADME, organism-based. The note with it: in vivo.
For data set [3], the target named is T1, Eukaryotic translation initiation factor 2-alpha kinase 3 (Homo sapiens, UniProt Q9NZJ5).
T1 sequence (Q9NZJ5 whole entry): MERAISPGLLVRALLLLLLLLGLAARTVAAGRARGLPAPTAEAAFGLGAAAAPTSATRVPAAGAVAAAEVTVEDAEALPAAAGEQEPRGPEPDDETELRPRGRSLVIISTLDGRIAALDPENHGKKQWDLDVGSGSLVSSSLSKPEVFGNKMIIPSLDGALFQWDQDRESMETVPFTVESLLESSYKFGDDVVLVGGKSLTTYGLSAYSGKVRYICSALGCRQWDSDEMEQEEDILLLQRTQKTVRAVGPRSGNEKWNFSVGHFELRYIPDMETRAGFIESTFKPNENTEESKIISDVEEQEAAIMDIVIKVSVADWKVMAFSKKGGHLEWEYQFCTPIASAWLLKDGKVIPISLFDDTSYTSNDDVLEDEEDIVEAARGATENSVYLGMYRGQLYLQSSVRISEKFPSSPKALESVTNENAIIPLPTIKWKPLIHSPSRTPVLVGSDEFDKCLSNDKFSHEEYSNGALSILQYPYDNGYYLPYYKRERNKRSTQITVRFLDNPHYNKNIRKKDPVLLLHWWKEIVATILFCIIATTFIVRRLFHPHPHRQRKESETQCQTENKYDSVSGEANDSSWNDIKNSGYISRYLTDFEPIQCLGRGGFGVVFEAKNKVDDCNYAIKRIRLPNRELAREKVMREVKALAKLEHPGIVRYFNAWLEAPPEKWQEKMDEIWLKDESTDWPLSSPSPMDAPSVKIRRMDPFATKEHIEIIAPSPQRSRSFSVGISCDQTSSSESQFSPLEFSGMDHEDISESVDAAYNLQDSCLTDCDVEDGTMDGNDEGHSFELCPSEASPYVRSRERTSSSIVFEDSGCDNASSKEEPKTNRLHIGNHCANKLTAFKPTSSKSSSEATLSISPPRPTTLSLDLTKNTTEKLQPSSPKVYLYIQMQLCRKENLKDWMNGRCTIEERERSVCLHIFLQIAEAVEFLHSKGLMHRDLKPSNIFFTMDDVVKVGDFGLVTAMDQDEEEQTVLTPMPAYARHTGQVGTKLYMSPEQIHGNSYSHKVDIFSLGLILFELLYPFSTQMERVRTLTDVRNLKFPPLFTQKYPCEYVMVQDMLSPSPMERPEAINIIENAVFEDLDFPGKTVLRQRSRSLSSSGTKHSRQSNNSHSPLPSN
As to the kind of experiment: Inhibition of PEK in human MOLM16 cells. Type of data set: cell-based.

With `CNC(=O)c1ncn2cc(-c3c(F)ccc(NS(=O)(=O)c4cc(Cl)cnc4OC)c3F)ncc12`, the F in data set [1] came out at 66%. Also, in data set [2], the half-life (usually the time in which the quantity being followed falls by half) was 10 h. Also, the IC50 (usually the concentration that gives 50% inhibition) in data set [3] stood at 5.2 µM.
